Laboratory results reported in patent US6528041B2, “Process for the preparation of 1-Propyl-2, 4, 5-trimethoxybenzene from toxic β-asarone of acorus calamus or from crude calamus oil containing β-asarone” (Council of Scientific and Industrial Research, priority 2000, dated 2003).

Columns and labels:
albino mice = experiment: acute toxicity test for maximum tolerance dose (MTD) as a single dose; assay type: in vivo; conditions: for maximum tolerant doses (MTD): albino mice (25±2 g), intraperitoneal single dose, observed for 24 hr
From the text: There has been a lot of research on the effect of the substituents and functional groups which make a substance toxic or eliminate the toxicity. Any chemical substance that is electrophilic or metabolized to electrophilic species are often quite toxic, because electrophilic substances can react covalently with nucleophilic substituents of cellular macromolecules such as DNA, RNA, enzymes and proteins. These irreversible covalent interactions with important cellular macromolecules interfere with the macromolecule's function and can lead to a variety of toxic effects including cancer, hepatotoxicity, reproductive toxicity and developmental toxicity. It has been realised that the side chain of β-asarone contains carbon-carbon double bond, which can be metabolized to epoxide. The epoxide so formed is highly electrophilic and is capable of interacting with biological tissues, and could therefore, be the reason for the toxicity of β-asarone. In view of the above fact, it was possible to reduce the toxicity of β-asarone by hydrogenating the side olefinic bond into 1-propyl-2,4,5-trimethoxybenzene having a single bond as a side chain. The toxicity of the reduced calamus oil as well as of 1-Propyl-2,4,5-trimethoxy-benzene was tested. Toxicity test was performed on albino mice (body weight 25±2 g). […] Where the initial pilot dose was lethal, the sample was diluted. This was the acute toxicity test for maximum tolerance dose (MTD) as a single dose. […] It must be noted that further reduction in toxicity is possible by further dilution as the odor intensity of 1-Propyl-2,4,5-trimethoxybenzene and reduced calamus oil is substantially stronger than both β-asarone and calamus oil.

[1] = system: [3H] raclopride binding sites; conditions: in vitro; cited from earlier work
[2] = system: [3H] spiperone binding sites; conditions: in vitro; cited from earlier work
rats = conditions: cited from earlier work
animals = conditions: cited from earlier work
human lymphocytes = human lymphocytes in-vitro after metabolic activation; cited from earlier work

For CCCc1cc(OC)c(OC)cc1OC [1-Propyl-2,4,5-trimethoxybenzene], the “toxicity relative to the unreduced starting material (times less toxic)” value (albino mice; 1-Propyl-2,4,5-trimethoxybenzene vs β-asarone, reduced calamus oil vs calamus oil, from MTD in albino mice) was “nearly five times and five” and the “maximum tolerant doses (MTD)” value (albino mice) was 0.56 ml/kg b.w.

In the case of CCCc1cc(OC)c(OC)c(C(=O)NCC2CCCN2CC)c1O (stereo not drawn) [salicylamide derivative, 5,6-dimethoxy-N[(1-ethyl-2-pyrrolidinyl)methyl]-3-propylsalicylamide], the “affinity for [3H] raclopride binding sites” value [1] is listed as “high and stereoselective affinity” and the “affinity for [3H] spiperone binding sites” value [2] is listed as “high and stereoselective affinity”.

For C/C=C/c1cc(OC)c(OC)cc1OC [α-Asarone], the lethality (rats) is listed as “fatal”.

For C/C=C\c1cc(OC)c(OC)cc1OC [β-asarone, cis-2,4,5-trimethoxy-1-propenylbenzene], the tumour induction (animals; after oral administration) is listed as “induce tumours in the duodenal region”, the carcinogenicity (animals; animals, higher percentage of β-asarone) is listed as “carcinogenic” and the chromosome damaging effect (human lymphocytes) is listed as “chromosome damaging effect”. The “maximum tolerant doses (MTD)” value (albino mice) was 0.12 ml/kg b.w.
